Patent US20260199564A1, “METHOD OF PREVENTING BLOOD COAGULATION AND DRUG-ELUTING IMPLANT FOR PERCUTANEOUS CORONARY INTERVENTION” (priority 2023, published 2026)

Key:
[1] = tested on: VCAM-1; experiment: LPS-induced VCAM-1 mRNA expression in HUVECs; assay type: cell-based, human; settings: 1, 3, 10 μM for 1 h prior to LPS (1 μg/ml) stimulation for 24 h
Protocol: (§1) HUVECs were treated for 1 h with ginsenoside CK (1 μM, 3 μM, and 10 μM) prior to LPS (1 μg/ml) stimulation for 24 h. (A) ICAM-1 (B) VCAM-1 mRNA expression. Values are means±SEM of 3 independent experiments. Statistical significance assessed by one-way ANOVA followed by Scheffe post-hoc test for multiple comparisons (***P<0.01, *P<0.05 vs LPS).
Treatment of HUVECs with LPS (1 μg/ml) increased ICAM-1 and VCAM-1 mRNA expression. Twenty-four hours after LPS treatment, maximal expression of ICAM-1 and VCAM-1 was attained. To determine whether LPS-stimulated ICAM-1 and VCAM-1 mRNA expression is affected by ginsenoside CK, HUVECs were treated for 1 h with ginsenoside CK (1 μM, 3 μM, and 10 μM) prior to LPS (1 μg/ml) stimulation for 24 h.

[2] = biological target: T1, CYP2C8 (Homo sapiens, UniProt P10632); experiment: Cytochrome P450 inhibition in human liver microsomes using LC-MS/MS, CYP2C8; assay type: in vitro ADME
T1 construct: with pooled human liver microsomes; from tissue; host or cells: pooled human liver microsomes
T1 sequence (P10632 1-490): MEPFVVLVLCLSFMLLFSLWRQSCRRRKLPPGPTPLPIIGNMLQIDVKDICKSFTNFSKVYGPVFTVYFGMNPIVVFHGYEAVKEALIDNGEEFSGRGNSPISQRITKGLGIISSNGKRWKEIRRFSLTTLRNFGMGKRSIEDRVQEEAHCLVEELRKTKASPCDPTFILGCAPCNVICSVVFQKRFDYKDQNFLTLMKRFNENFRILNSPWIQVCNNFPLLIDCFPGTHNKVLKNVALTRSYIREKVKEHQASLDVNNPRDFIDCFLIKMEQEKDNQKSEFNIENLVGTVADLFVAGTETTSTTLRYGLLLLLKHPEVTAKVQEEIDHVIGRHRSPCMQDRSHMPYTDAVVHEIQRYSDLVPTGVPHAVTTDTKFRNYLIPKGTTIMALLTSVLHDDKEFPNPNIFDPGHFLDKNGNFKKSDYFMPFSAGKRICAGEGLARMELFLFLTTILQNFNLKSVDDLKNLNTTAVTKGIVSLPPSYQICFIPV
Protocol: (§2) In IC50 shift experiments, CK (0.2 μL prepared in DMSO) was pre-incubated for 30 min at 37° C., at 8 different concentrations, with pooled human liver microsomes (0.1-1 mg/mL, depending on which enzyme was assessed) in the absence or presence of 1 mM NADPH in 100 μL of potassium phosphate buffer (100 mM, pH 7.4) and MgCl2 (2.5 mM). After the pre-incubation, a substrate mixture containing a probe substrate in 100 μL of potassium phosphate buffer (100 mM, pH 7.4), MgCl2 (2.5 mM), and NADPH (1 mM) was added for measurement of the corresponding P450 activities. Incubations were terminated by addition of 200 μL methanol. Samples were then extracted and centrifuged and the supernatant was subjected to validated LC-MS/MS analysis.

[3] = biological target: T2, CYP2C19 (Homo sapiens, UniProt P33261); experiment: Cytochrome P450 inhibition in human liver microsomes using LC-MS/MS, CYP2C19; assay type: in vitro ADME
T2 construct: with pooled human liver microsomes; from tissue; host or cells: pooled human liver microsomes
T2 sequence (P33261 whole entry): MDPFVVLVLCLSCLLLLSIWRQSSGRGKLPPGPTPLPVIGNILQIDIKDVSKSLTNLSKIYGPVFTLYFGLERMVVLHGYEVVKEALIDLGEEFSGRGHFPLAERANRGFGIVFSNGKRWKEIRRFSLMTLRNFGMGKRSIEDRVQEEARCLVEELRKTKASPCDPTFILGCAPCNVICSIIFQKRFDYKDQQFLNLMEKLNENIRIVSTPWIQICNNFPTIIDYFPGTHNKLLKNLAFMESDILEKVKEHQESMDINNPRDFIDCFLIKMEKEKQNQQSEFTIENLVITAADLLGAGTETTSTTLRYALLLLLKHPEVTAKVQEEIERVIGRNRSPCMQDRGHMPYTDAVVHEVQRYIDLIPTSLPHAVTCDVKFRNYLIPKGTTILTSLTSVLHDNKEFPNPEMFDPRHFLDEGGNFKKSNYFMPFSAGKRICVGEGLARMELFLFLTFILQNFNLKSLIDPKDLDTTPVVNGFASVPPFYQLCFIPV
Protocol: as §2

[4] = tested on: TNF-α; experiment: LPS-induced TNF-α expression in HUVECs; assay type: cell-based, human; settings: 1, 3, 10 μM for 1 h prior to LPS (1 μg/ml) stimulation for 24 h
Protocol: as §1, with “h” for “h.”, “IL-6” for “ICAM-1”, “TNF-αexpression.” for “VCAM-1 mRNA expression.”
Treatment of HUVECs with LPS (1 μg/ml) increased IL-6 and TNF-αexpression. To determine whether LPS-induced IL-6 and TNF-αexpression was affected by ginsenoside CK, HUVECs were treated for 1 h with ginsenoside CK (1 μM, 3 μM, and 10 μM) prior to LPS (1 μg/ml) stimulation for 24 h.

[5] = biological target: T3, CYP2C9 (Homo sapiens, UniProt P11712); experiment: Cytochrome P450 inhibition in human liver microsomes using LC-MS/MS, CYP2C9; assay type: in vitro ADME
T3 construct: with pooled human liver microsomes; from tissue; host or cells: pooled human liver microsomes
T3 sequence (P11712 whole entry): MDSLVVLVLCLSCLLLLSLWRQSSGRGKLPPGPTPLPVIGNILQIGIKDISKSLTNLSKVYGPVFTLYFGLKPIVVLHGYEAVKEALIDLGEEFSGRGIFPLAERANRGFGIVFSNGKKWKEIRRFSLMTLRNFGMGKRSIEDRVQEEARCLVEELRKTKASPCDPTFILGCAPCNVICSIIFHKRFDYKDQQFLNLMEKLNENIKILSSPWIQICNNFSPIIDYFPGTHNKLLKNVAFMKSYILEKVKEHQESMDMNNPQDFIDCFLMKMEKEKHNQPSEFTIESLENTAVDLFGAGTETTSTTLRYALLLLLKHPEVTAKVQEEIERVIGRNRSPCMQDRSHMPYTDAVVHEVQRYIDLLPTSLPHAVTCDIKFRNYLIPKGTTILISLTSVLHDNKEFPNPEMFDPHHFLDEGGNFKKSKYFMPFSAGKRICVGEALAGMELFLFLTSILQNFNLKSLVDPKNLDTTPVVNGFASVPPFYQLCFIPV
Protocol: as §2

[6] = tested on: HUVECs; experiment: HUVEC cell viability by CCK-8 assay; assay type: cell-based, human; settings: 1 μM, 3 μM, and 10 μM alone for 24 h
[7] = tested on: Human platelets; experiment: Platelet aggregation test (anticoagulant test), collagen-treated platelet-rich plasma; assay type: cell-based; settings: PRP, 5 μg/ml collagen, CK 0-80 μM
Protocol: • a. A 20 mM CK stock solution is prepared with DMSO and is diluted with 1×PBS to the different working concentrations (0, 62.5, 125, 250, 500, 1000, and 2000 μM) before experiments.
The donator should rest and fast for 12 h and not smoke before blood collection. Medication such as antihistamines, antibiotics, Aspirin, and anti-inflammatory drugs are not allowed to take 10-14 days before tests due to the potential of affecting platelet function.
To ensure the absence of coagulation, the blood sample should be fully mixed with the anticoagulant and stored at 24-27° C. It is recommended to conduct the platelet aggregation test within 30-150 min after blood sample collection.
Slightly invert the blood collection tubes 3-4 times to resuspend the blood cells. Centrifuge the samples at 170×g for 7 min and transfer the supernatants to the new tubes. The samples should be used within 5-10 min after separation; otherwise, the samples should be stored at 4° C. to avoid agglutination. […]
To test the effect of CK on the function of platelet aggregation, different concentrations of CK (0, 2.5, 5, 10, 20, 40, and 80 μM) are added to 0.25 ml PRP. […] OD value is measured with a spectrometer at 650 nm, and the value is converted into an aggregate percentage.
The aggregation percentage of platelet is calculated with the following formula: […]

[8] = 50 μM, 30 min pre-incubation in the presence or absence of NADPH

CC(C)=CCC[C@](C)(O[C@@H]1O[C@H](CO)[C@@H](O)[C@H](O)[C@H]1O)[C@H]1CC[C@]2(C)[C@@H]1[C@H](O)C[C@@H]1[C@@]3(C)CC[C@H](O)C(C)(C)[C@@H]3CC[C@]12C [CK, Ginsenoside compound K]
LPS-stimulated VCAM-1 mRNA expression [1]: significantly inhibited | inhibition at concentration of 50 μM [2, 8]: did not inhibit | IC50 ([2]; pooled human liver microsomes, substrate Amodiaquine): > 50 µM | inhibition at concentration of 50 μM [3, 8]: did not inhibit | IC50 ([3]; pooled human liver microsomes, substrate S-Mephenytoin): > 50 µM | LPS-induced TNF-α expression [4]: significantly decreased | inhibition at concentration of 50 μM [5, 8]: did not inhibit | IC50 ([5]; pooled human liver microsomes, substrate Diclofenac): > 50 µM | cell viability [6]: did not influence cell viability | platelet aggregation level after treating the platelet with CK [7]: decreased
